Assay results taken from ChEMBL document CHEMBL4622906, “Design, synthesis and evaluation of novel levoglucosenone derivatives as promising anticancer agents” (Bioorg Med Chem Lett, 2020).
The source made the active and inactive calls. The calls are words filed in the database; no cut-off is given here.

Assays:
MDA-MB-231 [1] = assay: Cytotoxicity against human MDA-MB-231 cells assessed as reduction in cell viability incubated for 48 hrs by MTT assay; assay type: functional, cell-based; conditions: MDA-MB-231, 48 h
MDA-MB-231 [2] = assay: Cytotoxicity against human MDA-MB-231 cells with p53 knock down assessed as reduction in cell viability incubated for 48 hrs by MTT assay; assay type: functional, cell-based
NCI-H1299 [3] = assay: Cytotoxicity against human H1299 cells assessed as reduction in cell viability incubated for 48 hrs by MTT assay; assay type: functional, cell-based; conditions: NCI-H1299, 48 h
NCI-H1299 [4] = assay: Cytotoxicity against human H1299 cells with p53 R280K mutant assessed as reduction in cell viability incubated for 48 hrs by MTT assay; assay type: functional, cell-based
HT-29 = assay: Cytotoxicity against human HT-29 cells assessed as reduction in cell viability incubated for 48 hrs by MTT assay; assay type: functional, cell-based; conditions: HT-29, 48 h
[5] = Selectivity index, ratio of IC50 for African green monkey Vero cells to IC50 for human HT-29 cells; assay type: toxicity; conditions: Vero cells versus HT-29 cells, read-out: Ratio IC50
[6] = Selectivity index, ratio of IC50 for African green monkey Vero cells to IC50 for human H1299 cells; assay type: toxicity; conditions: Vero cells versus H1299 cells, read-out: Ratio IC50
[7] = Selectivity index, ratio of IC50 for African green monkey Vero cells to IC50 for human MDA-MB-231 cells; assay type: toxicity; conditions: Vero cells versus MDA-MB-231 cells, read-out: Ratio IC50

SMILES | IC50 (MDA-MB-231 [1]) [µM] | inhibition (MDA-MB-231 [2]) | IC50 (NCI-H1299 [3]) [µM] | cytotoxicity activity call (active/inactive) (NCI-H1299 [4]) | IC50 (HT-29) [µM] | also measured
COC(=O)Cn1cc(CO[C@H]2CC(=O)[C@@H]3OC[C@H]2O3)nn1 | 21.3 | – | – | – | – | –
O=C1C[C@H](OCc2cn(-c3ccccc3Br)nn2)[C@H]2CO[C@@H]1O2 | 22.5 | – | – | – | – | –
CCCCCCCCn1cc(CN(C(C)=O)[C@H]2CC(=O)[C@@H]3OC[C@H]2O3)nn1 | > 50 | – | – | – | – | –
O=C1C[C@H](OCc2cc(-c3cc(C(F)(F)F)cc(C(F)(F)F)c3)no2)[C@H]2CO[C@@H]1O2 | 23.9 | – | – | – | – | –
O=C(O)c1ccc(-n2cc(CO[C@H]3CC(=O)[C@@H]4OC[C@H]3O4)nn2)cc1 | 23.2 | – | – | – | – | –
CC(=O)N(Cc1cn(Cc2ccccc2)nn1)[C@H]1CC(=O)[C@@H]2OC[C@H]1O2 | > 50 | – | – | – | – | –
O=C1C[C@H](OCc2cn(-c3cccc4ccccc34)nn2)[C@H]2CO[C@@H]1O2 | 21.9 | – | – | – | – | –
COC(=O)Cn1cc(CN(C(C)=O)[C@H]2CC(=O)[C@@H]3OC[C@H]2O3)nn1 | > 50 | – | – | – | – | –
O=C1C[C@H](OCc2cc(-c3ccc([N+](=O)[O-])cc3)no2)[C@H]2CO[C@@H]1O2 | 16.5 | inactive | 11.2 | Active | 19.8 | –
O=C1C[C@H](OCc2cc(-c3ccc4ccccc4c3)no2)[C@H]2CO[C@@H]1O2 | 21.2 | – | – | – | – | –
O=C1CCCCC1n1cc(CO[C@H]2CC(=O)[C@@H]3OC[C@H]2O3)nn1 (some centres undefined) | 36 | – | – | – | – | –
O=C1C[C@H](OCc2cn(Cc3ccc4ccccc4c3)nn2)[C@H]2CO[C@@H]1O2 | 23.7 | – | – | – | – | –
C=C(C)Cn1cc(CO[C@H]2CC(=O)[C@@H]3OC[C@H]2O3)nn1 | 26.7 | inactive | 14.3 | Active | 17.2 | –
COc1ccc(Cn2cc(CO[C@H]3CC(=O)[C@@H]4OC[C@H]3O4)nn2)cc1 | 34.8 | – | – | – | – | –
COc1ccc(-c2cc(CO[C@H]3CC(=O)[C@@H]4OC[C@H]3O4)on2)cc1 | 21.9 | – | – | – | – | –
O=C1C[C@H](OCc2cn(-c3cccc(Cl)c3Cl)nn2)[C@H]2CO[C@@H]1O2 | 26 | – | – | – | – | –
O=C1C[C@H](OCc2cn(-c3ccccc3Cl)nn2)[C@H]2CO[C@@H]1O2 | 26.4 | – | – | – | – | –
O=C1C[C@H](OCc2cn(-c3ccc([N+](=O)[O-])cc3)nn2)[C@H]2CO[C@@H]1O2 | 24.8 | inactive | 10.3 | Active | 18.3 | –

SMILES | IC50 (MDA-MB-231 [1]) [µM] | inhibition (MDA-MB-231 [2]) | IC50 (NCI-H1299 [3]) [µM] | cytotoxicity activity call (active/inactive) (NCI-H1299 [4]) | IC50 (HT-29) [µM] | also measured
O=C1C[C@H](OCc2cn(Cc3ccc([N+](=O)[O-])cc3)nn2)[C@H]2CO[C@@H]1O2 | 25.4 | – | – | – | – | –
COc1ccc(/C=C/c2cc(CO[C@H]3CC(=O)[C@@H]4OC[C@H]3O4)on2)cc1 | 26.4 | – | – | – | – | –
CCCCCCCCn1cc(CO[C@H]2CC(=O)[C@@H]3OC[C@H]2O3)nn1 | > 50 | – | – | – | – | –
O=C1C[C@H](OCc2cc(-c3ccc(Cl)cc3)no2)[C@H]2CO[C@@H]1O2 | 17.9 | inactive | 9 | Active | 14.5 | –
O=C1C[C@H](OCc2cn(C(=O)OCC3c4ccccc4-c4ccccc43)nn2)[C@H]2CO[C@@H]1O2 | 18.6 | inactive | 9 | Active | 15.6 | selectivity ratio [5]: 6; selectivity ratio [6]: 5; selectivity ratio [7]: > 2
O=C1C[C@H](OCc2cn(-c3ccc(Cl)cc3)nn2)[C@H]2CO[C@@H]1O2 | 26.1 | inactive | 10.6 | Active | 14.7 | –
O=C1C[C@H](OCc2cc(-c3ccccc3)no2)[C@H]2CO[C@@H]1O2 | 21.9 | inactive | 9.8 | Active | 16.9 | –
O=C1C[C@H](OCc2cn(C3CCCCC3)nn2)[C@H]2CO[C@@H]1O2 | 24.3 | inactive | 12 | Active | 11.9 | selectivity ratio [5]: 6; selectivity ratio [6]: 5; selectivity ratio [7]: > 2
CC(=O)N(Cc1cn(CC(=O)c2ccccc2)nn1)[C@H]1CC(=O)[C@@H]2OC[C@H]1O2 | > 50 | – | – | – | – | –
O=C(Cn1cc(CO[C@H]2CC(=O)[C@@H]3OC[C@H]2O3)nn1)c1ccccc1 | 25.9 | – | – | – | – | –
O=C1C[C@H](OCc2cc(C3CCCCC3)no2)[C@H]2CO[C@@H]1O2 | 15.8 | inactive | 6.1 | Active | 9 | –
O=C1C[C@H](OCc2cc(/C=C/c3ccccc3)no2)[C@H]2CO[C@@H]1O2 | 22.9 | inactive | 7.1 | Active | 13.7 | –
O=C1C[C@H](OCc2cn(-c3ccccc3)nn2)[C@H]2CO[C@@H]1O2 | 25.2 | inactive | 10.9 | Active | 13.4 | –
O=C1C[C@H](OCc2cc(-c3ccc(Cl)o3)no2)[C@H]2CO[C@@H]1O2 | 13.8 | inactive | 7.6 | Active | 10.1 | –
CCCCn1cc(CO[C@H]2CC(=O)[C@@H]3OC[C@H]2O3)nn1 | 27.9 | – | – | – | – | –
O=C1C[C@H](OCc2cn(-c3ccc(F)cc3)nn2)[C@H]2CO[C@@H]1O2 | 23.7 | – | – | – | – | –
O=C1C[C@H](OCc2cn(Cc3ccccc3)nn2)[C@H]2CO[C@@H]1O2 | > 50 | – | – | – | – | –
